Laboratory results from a melting point compilation (Tetko et al.; mined from patent text by program, amines drawn as free bases though some values may be those of a salt).

| SMILES | melting point [°C] |
| --- | --- |
| N#Cc1c(Cl)c2ccccc2n(Cc2ccc(F)cc2)c1=O | 231 |
| O=C1C(=O)c2ccccc2C2=C1SCC1(CCN(CC(O)c3ccccc3)CC1)O2 (stereo unspecified) | 193 to 195 |
| CCOC(=O)CCC(C#N)(c1cccc(F)c1)N1CCOCC1 (stereo unspecified) | 88 to 90 |
| CC(=O)OC1CSC(Oc2ccc(C)nc2[N+](=O)[O-])C(OC(C)=O)C1OC(C)=O (stereo unspecified) | 154 |
| CCCCCCC(C)(C)c1cc(OC)c(C2C(O)[C@]3(C)CC[C@H]2C3(C)C)c(OC)c1 (stereo partly specified) | 96 to 98 |
| O=C(NCc1ccc(Cl)cc1)c1cnc2cc(I)ccc2c1O | 248 to 250 |
| Nc1nc(-c2cccc(C(F)(F)F)c2)nc2nc(-c3ccco3)nn12 | 296 to 298 |
| CCCOCCN(CC)c1ccc(-c2ccc3c(c2)C=C(C(=O)Nc2ccc(CN(C)C4CCOCC4)cc2)CCS3(=O)=O)cc1 | 172 to 175 |
| COc1ccc(C2(O)c3c(C)c(NC(=O)CC(C)(C)C)c(C)c(C)c3OC2(C)C)cc1 (stereo unspecified) | 98 to 99 |
| O=C(NCC(=O)N1CCSC1)c1cc2cc(Cl)ccc2[nH]1 | 253 to 255 |
| [N-]=[N+]=CC(=O)[C@H](O)[C@@H](O)[C@@H](O)CO | 93 to 94 |
| NC(=O)C(Nc1ccccc1C1CC1)c1c(Cl)cccc1Cl (stereo unspecified) | 196 |
| CC(C)c1nc(COCc2ccccc2)n(Cc2cnc3ccccc3c2)c1Sc1cc(Cl)cc(Cl)c1 | 95 to 98 |
| CN(C)c1ccc(-c2cnc3[nH]cc(C(=O)N[C@@H](C(=O)N4CC(C#N)C4)C4CC4)c3n2)cc1 | 175 to 180 |
| CCOC(=O)c1cnc2c(c1O)CCCCCCCC2 | 212 to 230 |
| CCN1C(=O)CCCc2c1ccc(Nc1ncc(Cl)c(N[C@@H]3CCC[C@H]3NS(C)(=O)=O)n1)c2OC (relative stereo) | 141 |
| Cc1cn(N=Cc2ccccc2)cn1 | 91 to 93 |
| COC(=O)C(C)(C)Cc1ccc(-c2ccc(CC(C)(C)C(=O)OC)cc2)cc1 | 68 to 70 |
| COC(=O)CC1Oc2ccccc2NC1=O (stereo unspecified) | 140 |
| Fc1ccc2[nH]cc(C3=CCN(CC4COc5ccc6[nH]c(C(F)(F)F)nc6c5O4)CC3)c2c1 (stereo unspecified) | 236 to 238 |
| CS(=O)(=O)C(=C1CN(C(c2ccccc2)c2ccccc2)C1)c1ccc2ccccc2c1 | 178 |

| SMILES | melting point [°C] |
| --- | --- |
| CC(C)(C)OC(=O)Nc1cc(CC#N)c(C#Cc2ccccc2)cc1N | 143 |
| NCCNS(=O)(=O)c1cc(NC(=O)c2cnn3c(C(F)F)cc(-c4ccc(C(F)(F)F)cc4)nc23)c(Cl)s1 | 150 |
| O=C(O)c1cc(NC(=O)C(CS)Cc2cccnc2)cs1 (stereo unspecified) | 115 to 118 |
| COc1ccc2c(=O)cc(-c3nc4ccccc4[nH]3)oc2c1 | 201 to 203 |
| Cc1cc(=O)[nH]nc1-c1ccc2c(c1)CC1(CCN(C3CCC3)CC1)O2 | 243 to 245 |
| COCCOc1ccc(C(=O)C2=C(O)C(=O)N(c3ccc(C)nn3)C2c2ccc(OC(F)(F)F)cc2)cc1 (stereo unspecified) | 216 to 219 |
| CCOC(=O)C(=CN1c2ccc(F)c(F)c2OCC1COC)C(=O)OCC (stereo unspecified) | 81 |
| CCOC(=O)C=Cc1ccc(Oc2c(-c3ccc(OC)cc3)ccc3cc(OC)ccc23)cc1 | 94 to 97 |
| CN1CCC(c2c[nH]c3ccc(NC(=O)c4ccc(Cl)cc4Cl)nc23)CC1 | 151 to 152 |
| O=C(O)CCC1=C2C(=CC(Cl)=CC2(F)Cl)NC1C(=O)O (stereo unspecified) | 292 to 294 |
| Cc1c(C)c2c(c(C)c1N)CC(C)(CN1CCN(C(=O)c3ccc([N+](=O)[O-])cc3)CC1)O2 (stereo unspecified) | 154 to 158 |
| CS(=O)(=O)c1cc(-c2nc(=O)c3ccccc3s2)ccn1 | 190 to 192 |
| CNC(=O)c1ccccc1Nc1nc(Nc2ccc3c(c2OC)CCCC(=O)N3CCOC)ncc1Cl | 205 to 207 |
| O=C(c1ccccc1)C(OCCN1CCCCC1)c1ccccc1 (stereo unspecified) | 53 |
| Oc1ccc2c3c1OC1C(O)CCC4(F)C(C2)N(CC2CCC2)CCC314 (stereo unspecified) | 236 to 239 |
| CC(C)COc1ccc(Br)cc1OCC(C)C | 47 |
| COCc1cn2c(C)c(C)nc2c2c1C(=O)[C@H](O)[C@@H](c1ccccc1)N2 | 206 to 208 |
| CCOC(=O)c1nc2c(=O)[nH]c3cc(C(F)(F)F)ccc3n2c1Cn1ccnc1C | > 250 |
| CC(C)c1cc(CCC(=O)O)cc(C(C)C)c1O | 106 |
| CCc1cnc(N2CCN(c3nc(-c4ccccc4)nc4ccccc34)CC2)nc1 | 137 to 138 |
| COc1ccc(N2C[C@@H](COS(C)(=O)=O)OC2=O)cc1 | 234 to 236 |

| SMILES | melting point [°C] |
| --- | --- |
| CC(=O)Nc1cc(C)c2c(c1O)C(=O)CC2 | 193 to 198 |
| Clc1ccc2c(c1)C(c1ccccc1Cl)=NCc1cncnc1-2 | 120 to 121 |
| CCCCCCCNC(=O)Nc1ccccc1C(=O)Nc1ccccn1 | 118 |
| CCOC(=O)C(C(=O)Nc1ccc(Br)cc1C)[N+](=O)[O-] (stereo unspecified) | 126 to 129 |
| O=Cc1cccc(OCc2ccccc2)c1Br | 125 to 126 |
| COc1ccc(Cn2c(=O)c3ccc([N+](=O)[O-])cc3n(CCCCBr)c2=O)cc1 | 122 to 123 |
| COc1ccc(N(C(=O)c2ccc3ccccc3c2)c2ccc(OCc3ccccc3)cc2)cc1 | 175 to 176 |
| Cc1ccccc1C(CCC(=O)O)Oc1cc(OCc2ccsc2)ccc1C(=O)C=Cc1ccccn1 (racemic) | 65 to 70 |
| O=S(=O)(Cl)C=Cc1ccc(Cl)c(Cl)c1 | 91 to 96 |
| COCCOc1cc2ncnc(NC3=CC(=O)C4(Cc5ccccc5)OC4C3=O)c2cc1OC (stereo unspecified) | 104 to 108 |
| O=C(NC(=NCCCc1c[nH]cn1)NCCSCc1csc(N=C2NCCCN2)n1)c1ccccc1 | 175 to 176 |
| COc1cccc2c1OC(COS(=O)(=O)c1ccc(C)cc1)CO2 (stereo unspecified) | 66 to 68 |
| COc1cc(N2CCCN(C)CC2)ccc1Nc1ncc2ccc(-c3ccccc3OC)n2n1 | 69 to 77 |
| Cc1c(-c2ccccc2)c(C2=CCNC2)c2oc(C3CC3)nc2c1C#N | 172 to 174 |
| CC(C)(C)c1cc(CO)n(Cc2ccc(C(F)(F)F)cc2Cl)n1 | 115 to 117 |
| COC(=O)C#Cc1cccc(C(=O)OC)c1 | 96 to 97 |
| N#Cc1cccc(-n2cnc(-c3ccccn3)n2)c1 | 194 to 195 |
| COc1ccc(Cn2c(=O)ccc3cnc(Nc4ccccc4)nc32)cc1 | 215 to 216 |
| O=C1Nc2cccc(-c3cncnc3)c2C12COc1cc3c(cc12)OCO3 (stereo unspecified) | 185 to 187 |
| COn1c(C)nc2c(NCc3c(C)cccc3C)cc(C(=O)O)cc21 | 248 to 249 |

Now from value to molecule:

| melting point [°C] | SMILES |
| --- | --- |
| 173 to 174 | N#CCCNC(=O)C1=CC(CF)(CF)Oc2ccc([N+](=O)[O-])cc21 |
| 80 | CCCc1c(OCC2Cc3cc(C(=O)CCC(=O)O)ccc3O2)ccc(C(C)=O)c1O (stereo unspecified) |
| 99 | ClCc1c(-c2ccccc2)c(-c2ccccc2)nn1Cc1ccccc1 |
| 142 to 143 | Cc1cc(SCc2ccc(OCc3ccc(C(F)(F)F)cc3)cc2)c(Cl)cc1OCC(=O)O |
| 112 to 114 | COC(=O)C1=C(C)NC(C)=C(C(=O)OCCN2CCCC2=O)C1c1cccc([N+](=O)[O-])c1 (stereo unspecified) |
| 201 to 203 | O=c1[nH]c(=O)n(C2CC(O)C(CO)O2)cc1-c1ccccn1 (stereo unspecified) |
| 122 | CNC(=O)NN(CC(=O)OC)c1ccccc1 |
| 174 | O=C(Nc1ccc2[nH]ncc2c1)c1ccccc1NCC1CCOCC1 |
| 231 | O=C(O)c1ccc(-c2cc(O)c(SCCc3ccccc3)c(=O)o2)cc1 |
| 230 to 237 | COc1cc2nc(N3CCc4c(cccc4S(=O)(=O)N4CCN(C)CC4)C3)[nH]c(=O)c2cc1OC |
| 204 to 205 | CN1CCN(c2cccc3c2C[C@H](NC(=O)c2ccc(Cl)cc2)CC3)CC1 |
| 110 | CCc1c(C)nc(-c2ncc([N+](=O)[O-])n2C)nc1C |
| 148 to 151 | COc1ccc(NC(=O)c2ccc(F)c(F)c2)cc1N |
| 130 | O=C(Nc1ccccc1Cl)Oc1ccc2c(c1)CCCN2Cc1ccccc1 |
| 222 to 223 | CC1(C)CN2C(=O)c3nc[nH]c3N(Cc3ccc(Cl)cc3)C2=N1 |
| > 180 | O=C(O)Cn1c(=O)c(=O)[nH]c2ccc3ccc(-n4cccc4CNC(=O)c4ccccc4)cc3c21 |
| 48.5 to 49.5 | CCCCCCCCCCCCc1cc(N)on1 |

| melting point [°C] | SMILES |
| --- | --- |
| 135 | O=C(O)c1cc(Cn2cc(C3c4ccccc4C=Cc4ccccc43)c(=S)[nH]c2=O)ccc1Cc1ccccc1 |
| 96 to 97 | O=C(O)CCC(=NOCc1ccc(OCc2cc(-c3ccccc3)no2)cc1)c1ccccc1 |
| 73 to 75 | CCCCCCCCCCCCCCCCCCNC(=O)OCC(CO)NC(=O)OC(C)(C)C (stereo unspecified) |
| 82 to 83 | O=Cc1ccc(-c2ccccc2)c(F)c1 |
| 222 to 224 | O=C(CO)Nc1nc(-c2ccc(Br)cc2)cs1 |
| 130 to 133 | CCOC(=O)C1=C(C)NC(C=O)=C(C(=O)OCC)C1c1cccc([N+](=O)[O-])c1 (stereo unspecified) |
| 183 to 184 | NC(=O)Cn1c(Cl)ccc1Cl |
| 170 to 171 | O=[N+]([O-])c1ccc(-c2oncc2CO)cc1 |
| 71 to 72 | OCCn1nccc1-c1ccc(Oc2ccc(F)cc2)cc1 |
| 142 to 144 | CCOC(=O)c1c(O)c2cccnc2n(Cc2ccc(Cl)cc2)c1=O |
| 174 to 176 | COc1ccccc1C1(Cc2ccccc2)C(=O)N(C)c2ccccc21 (stereo unspecified) |
| 185 to 187 | COc1cc(OC)c2c(c1)S(=O)(=O)N(CCl)C2=O |
| 220 to 223 | Cc1ccc(-c2nnc(S)nc2-c2ccc(C)cc2)cc1 |
| 169 to 170 | CCOC(=O)c1c(Cn2cncn2)nc2sc3c(c2c1-c1ccc(OC)c(OC)c1)CN(C(=O)OCc1ccccc1)CC3 |
| 133 | C=CCn1ncc(=O)[nH]c1=O |
| 135 to 136 | CC(=O)OC1CCC2(C)C(CCC3C2CCC2(C)C(C(=O)C=[N+]=[N-])CCC32)C1 (stereo unspecified) |
| 198 to 199 | N#Cc1ccc2c(c1)C1(COc3cc4c(cc31)OCCO4)C(=O)N2Cc1ccccn1 (stereo unspecified) |
